The nature of series [1]: Stability in aqueous solution. It counts as physicochemical. Conditions: 37 °C for 24 h.
The target of series [2] is T1, HDAC11 (Homo sapiens, UniProt Q96DB2).
T1 sequence (Q96DB2 1-347): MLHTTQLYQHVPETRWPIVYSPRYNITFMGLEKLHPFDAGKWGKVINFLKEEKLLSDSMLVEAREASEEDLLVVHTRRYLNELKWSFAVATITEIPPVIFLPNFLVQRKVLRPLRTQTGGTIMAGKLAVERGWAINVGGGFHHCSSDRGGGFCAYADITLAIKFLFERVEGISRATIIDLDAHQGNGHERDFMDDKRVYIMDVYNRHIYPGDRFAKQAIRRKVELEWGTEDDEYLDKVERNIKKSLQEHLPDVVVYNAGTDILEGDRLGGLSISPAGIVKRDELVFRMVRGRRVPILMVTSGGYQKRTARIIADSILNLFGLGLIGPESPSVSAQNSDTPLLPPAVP
Kind of series: Substrate assay: incubation with HDAC11, UPLC-MS analysis of cleavage product. The following applies: 50 μM compound, 10 or 100 nM HDAC11, 37 °C, 24 h. The series is classed as biochemical. The procedure:
Because acylated H3K9 peptides are known to be substrates of HDAC11, , it had to be analyzed if the presence of a substitution in close proximity to the hydrolyzable amide bond is sufficient to suppress the deacylation of the compound by HDAC11, thereby transforming a substrate into an inhibitor. Accordingly, 50 μM of the most promising compounds, specifically 2, 10, 17, and 18, were incubated in the presence of 10 or 100 nM of HDAC11 at 37 °C for 24 h, followed by UPLC–MS analysis. […] Consequently, compounds 17 and 18 were excluded from further analyses.
The peptides were incubated at 50 μM, together with 10 or 100 nM HDAC11 in HDAC11 buffer for 24 h at 37 °C. The solution was then analyzed using UPLC–MS.
F. UPLC-MS Data of the substrate test
In order to ascertain whether peptides 2, 10, 17 and 18 are possible substrates of HDAC11, 50 µM of the peptides were incubated with 100 nM HDAC11 for 24 hours at 37°C. Subsequently, a sample of the solutions was subjected to analysis using UPLC-MS. The presence of the double-charged peptide representing the expected cleavage product Ac-TARKSTG-NH2 of 2, 10, 17 and 18 with the m/z ratio of [M+2H]2+ (381.45) was taken as an indicator of a HDAC11-catalysed reaction. […]
exclusively HDAC11 in the assay buffer. No signal indicative for the product peptide was detected. […]
Absorbance at 220 nm is shown. […]

The target of series [3] is T1, HDAC11. The series is described as follows: HDAC11 inhibition, continuous fluorescence-based assay with fatty-acylated peptide substrate. The series is classed as biochemical. The following applies: for IC50: substrate Ac-EALPK(11-Abz-Aun)KY(3-NO2)GG-NH2 20 µM, triplicate, read-out: IC50 against HDAC11; for IC50 increase compared to 28: HDAC11. How it is done: Inhibition of the enzymatic activity of HDACs was performed continuously for HDAC8, HDAC11, and SIRT2 and discontinuously for SIRT2, 3, and 6 using adequate substrates as described previously. , Experimental details are given in the Supporting Information.
A. HDAC and SIRT deacylase activity assays
Continuous in vitro HDAC inhibition assays
The inhibitors were tested using 384-well plates (GreinerONe). After 5 min of incubation of the inhibitors together with the respective enzymes (HDAC8 = 2 nM, HDAC11 = 20 nM, SIRT2 = 1 nM), the reactions were always started by the addition of substrate for the Zn2+-dependent HDAC and by the addition of NAD+ for SIRT2. The reactions were performed in either HDAC8 buffer (20 mM HEPES, 140 mM NaCl, 10 mM MgCl 2, 1 mM tris(2-carboxyethyl)phosphine (TCEP), and 0.2 mg/ml BSA, pH 7.4 adjusted with NaOH), HDAC11 buffer (20 mM HEPES, 70 µM TCEP and 2 mg/ml BSA, pH 7.4 adjusted with NaOH) or SIRT buffer (20 mM Tris, 150 mM NaCl, 5 mM MgCl2 and 2 mg/ml BSA pH 7.8 adjusted with HCl), respectively. The thiotrifluoracetylated substrate Abz-SRGGK(thio-TFA)FFRR-NH2 (50 µM) […]
Aun is N-(2-aminobenzoyl)-11-aminoundecanoyl, was used for HDAC11 and Ac-EALPKK(Myr)T-C(Fluorescein)-G-NH2 (40 nM) was used for SIRT2 1-3.
The fluorescence increase was followed for 1 h with two reads per min using a PerkinElmer Envision […]
The excitation wavelength for HDAC8 and 11 was 320 ± 8 nm and the […]
Positive (enzyme, substrate, DMSO, and buffer) and negative
(substrate, DMSO, and Buffer) controls were included in every measurement and were set as 100% and 0%, respectively. The measured values were normalized accordingly. All tests were performed in triplicates. The data were fitted using the GraphPad Prism8 software and kinetic values calculated through non-linear regression analysis. […]

Series [4] addresses T1, HDAC11. Kind of series: Microscale thermophoresis (MST) binding. The following applies: 20 nM 32, varying concentrations of HDAC11, 25 °C. The procedure:
Microscale thermophoresis (MST) was performed using a Monolith NT.115 (Nanotemper) with standard capillaries (MO-K022). The reaction solution contained a dilution series (1:1) of 16 different concentrations of HDAC11 (0.48 nM to 16 μM) and 20 nM 32 in MST buffer (20 mM MOPS buffer (pH 7.4 adjusted with NaOH), 0.2 mg/mL BSA, and 70 μM TCEP) and 5% (v/v) DMSO. After 5 min of incubation, the samples were loaded into capillaries and measured at 25 °C with a Filter Nano-BLUE at an excitation power of 20% and an MST power of 40%. The resulting data were fitted by MO.Affinity Analysis software (Nanotemper) via MST curves and fluorescence signals.

For series [5], the target named is T1, HDAC11. On the set-up: method as in not printed per compound. The following applies: literature values, Figure 1; ref not printed per compound; read-out: IC50 as reported for HDAC11; cited from earlier work.
The subject of series [6] is global protein fatty acylation. Also on record: method as in previous studies (number not given). The following applies: treatment with pan-HDAC inhibitor; ref previous studies (number not given); cited from earlier work.
In series [7] the target is T1, HDAC11. On the set-up: method as in number not given. Conditions: myristoylated 12-mer peptide; ref number not given; read-out: KM value as substrate of HDAC11; cited from earlier work.

“And” between values parts separate entries of the source, which are not always exact repeats. Equal entries are not always repeated. “Also recorded” adds a separate entry of the source. Where two headings read alike, the source gives them in different places. Residues, ends and D or L forms follow the SMILES beside them. No end group written: not given here. ξ: configuration not given here. *: point of attachment. ξGly(tetradecyl) = CCCCCCCCCCCCCCC(N)C(=O)O; Myristoyl = CCCCCCCCCCCCCC(=O)*; X1 = CCCCCCCCCCCCCCC(S)C(=O)*

Regarding `CCCCCCCCCCCCCCC(S)C(=O)NCCCC[C@H](NC(=O)[C@H](CCCNC(=N)N)NC(=O)[C@H](C)NC(=O)[C@@H](NC(C)=O)[C@@H](C)O)C(=O)N[C@@H](CO)C(=O)N[C@H](C(=O)NCC(N)=O)[C@@H](C)O` (stereo partly shown) [Compound 2] (Ac-TARK(X1)STG-NH2; N-terminus and C-terminus assumed), the “Stability in aqueous solution” value in series [1] is “completely stable”. Moreover, on HDAC11 [2], the “Substrate properties / hydrolysis by HDAC11” value was “no single recognisable peak is present at the expected time; also recorded: not able to hydrolyze”.
In the case of `CCCCCCCCCCCCCCC(N)C(=O)NCCCC[C@H](NC(=O)[C@H](CCCNC(=N)N)NC(=O)[C@H](C)NC(=O)[C@@H](NC(C)=O)[C@@H](C)O)C(=O)N[C@@H](CO)C(=O)N[C@H](C(=O)NCC(N)=O)[C@@H](C)O` (stereo partly shown) [Compound 10] (Ac-TARK(ξGly(tetradecyl))STG-NH2; N-terminus and C-terminus assumed), the “Stability in aqueous solution” value in series [1] was “completely stable”. For the same molecule, the “Substrate properties / hydrolysis by HDAC11” value at HDAC11 [2] is “no single recognisable peak is present at the expected time; also recorded: not able to hydrolyze”.
Consider `CCCCCCSC[C@@H](N)C(=O)NCCCCC` [Compound 25], for which, on HDAC11 [3], the IC50 (in general, the concentration at which inhibition is half-maximal) was found to be 904 ± 118 nM.
Still for that read-out and setting: in the case of `CCCCCCCCSC[C@@H](N)C(=O)NCCCCC` [Compound 26] it was 399 ± 60 nM.
Same read-out and setting: in the case of `CCCCCCCCCCSC[C@@H](N)C(=O)NCCCCC` [Compound 27] it was 150 ± 10.7 nM.
The same measure, in the same setting: in the case of `CCCCCCCCCCCCSC[C@@H](N)C(=O)NCCCCC` [Compound 28] it was 56.1 ± 6 nM.
Regarding `CCCCCCCCCCCCSC[C@@H](N)C(=O)NCc1cn(C)nn1` [Compound 29], the “IC50 increase compared to 28” value against HDAC11 [3] is “more than 10 fold”.
On the same count and under the same terms, in the case of `CCCCCCCCCCCCSC[C@@H](N)C(=O)N1Cc2ccccc2C1` [Compound 30] it was “more than 10 fold”.
Consider `CCCCCCCCCCCCSC[C@@H](N)C(=O)NCCCC[C@H](NC(=O)[C@H](CCCCN)NC(=O)CCC(=O)NCCCOCCOCCOCCCNC(=O)c1ccc2c(c1)C(=O)OC21c2ccc(O)cc2Oc2cc(O)ccc21)C(N)=O` [Compound 32], for which the equilibrium dissociation constant (Kd) – broadly, the free concentration of one partner at which half of the binding sites on the other are occupied at equilibrium, for simple one-to-one binding – on HDAC11 [4] is 271 nM and 270 nM. In addition, the 50% inhibitory concentration (IC50) at HDAC11 [3] is 537 nM.
For the molecule `CCCCCOCCCCCNNC(=O)c1ccc(CNC(=O)c2ccccc2)cc1` [Compound B6], the IC50 on HDAC11 [5] is 51.1 nM.
In the case of `C/C=C1\NC(=O)[C@H]2CSSCC/C=C/[C@H](CC(=O)N[C@H](C(C)C)C(=O)N2)OC(=O)[C@H](C(C)C)NC1=O` [Romidepsin (FK-228), Romidepsin], the IC50 on HDAC11 [5] was 2700 nM.
On to `O=C(CCCCCCC(=O)Nc1ccccc1)NO` [Vorinostat (SAHA), vorinostat], for which the “Global protein fatty acylation” value in series [6] is on record as “decrease in global protein fatty acylation”.
For KQTARK(Myristoyl)STGGWW [H3K9(Myr)], on HDAC11 [7], the Michaelis constant (Km) – broadly, the substrate concentration at which the rate is half of its maximum – is 17.3 µM.

The record behind these values is article PMC12573178, “Substrate-Guided Development of HDAC11-Selective Inhibitors Featuring α‑Amino Amide Zinc-Binding Groups” (ACS Omega, 2025).
